Test results taken from patent publication US8268840B2, “Pyrimidinyl pyridone inhibitors of kinases” (Roche Palo Alto LLC, priority 2008, dated 2012).

Row | melting point [°C] | Structure (SMILES)
1 | 213 to 214 | Cc1cccc(C)c1Nc1ncc2c(N)c(C)c(=O)n(C3CCC3)c2n1 [Compound I-70, 5-Amino-8-cyclobutyl-2-(2,6-dimethyl-phenylamino)-6-methyl-8H-pyrido[2,3-d]pyrimidin-7-one]
2 | 256 to 257 | CC(=O)c1c(N)c2cnc(NC3CCCCC3)nc2n(C2CCC2)c1=O [Compound I-68, 6-Acetyl-5-amino-8-cyclobutyl-2-cyclohexylamino-8H-pyrido[2,3-d]pyrimidin-7-one]
3 | 160 to 161 | Cc1c(N)c2cnc(N[C@@H]3CCCC[C@@H]3C)nc2n(C2CCC2)c1=O (racemic) [Compound I-58, 5-Amino-8-cyclobutyl-6-methyl-2-((1R,2S)-2-methyl-cyclohexylamino)-8H-pyrido[2,3-d]pyrimidin-7-one]
4 | 235 to 238.2 | CCn1c(=O)cc(N)c2cnc(NC3CCOCC3)nc21 [Compound I-50, 5-Amino-8-ethyl-2-(tetrahydro-pyran-4-ylamino)-8H-pyrido[2,3-d]pyrimidin-7-one]
5 | 186 to 187 | Cc1ccccc1Nc1ncc2c(N)c(C)c(=O)n(C3CCC3)c2n1 [Compound I-62, 5-Amino-8-cyclobutyl-6-methyl-2-o-tolylamino-8H-pyrido[2,3-d]pyrimidin-7-one]

Further lines, the molecule ahead of its results:

Row | Structure (SMILES) | melting point [°C]
6 | Cc1c(N)c2cnc(NC3CCN(S(C)(=O)=O)CC3)nc2n(C2CCC2)c1=O [Compound I-40, 5-Amino-8-cyclobutyl-2-(1-methanesulfonyl-piperidin-4-ylamino)-6-methyl-8H-pyrido[2,3-d]pyrimidin-7-one] | 265.3 to 267
7 | CC(C)c1c(N)c2cnc(NC3CCCCC3)nc2n(C2CCC2)c1=O [Compound I-49, 5-Amino-8-cyclobutyl-2-cyclohexylamino-6-isopropyl-8H-pyrido[2,3-d]pyrimidin-7-one] | 277.5 to 278
8 | Nc1cc(=O)n(CCCO)c2nc(NC3CCCCC3)ncc12 [Compound I-8, 5-Amino-2-cyclohexylamino-8-(3-hydroxy-propyl)-8H-pyrido[2,3-d]pyrimidin-7-one] | 131 to 132.5
9 | CC(=O)N[C@H]1CC[C@H](Nc2ncc3c(N)c(C)c(=O)n(C4CCCC4)c3n2)CC1 [Compound I-41, N-[4-(5-Amino-8-cyclopentyl-6-methyl-7-oxo-7,8-dihydro-pyrido[2,3-d]pyrimidin-2-ylamino)-cyclohexyl]-acetamide] | 296.2 to 298.2
10 | Nc1cc(=O)n(C2CCCC2)c2nc(Nc3ccccc3)ncc12 [Compound I-45, 5-Amino-8-cyclopentyl-2-phenylamino-8H-pyrido[2,3-d]pyrimidin-7-one] | 128.3 to 130
11 | Nc1c(F)c(=O)n(C2CCC2)c2nc(NC3CCCCC3)ncc12 [Compound I-4, 5-Amino-8-cyclobutyl-2-cyclohexylamino-6-fluoro-8H-pyrido[2,3-d]pyrimidin-7-one] | 286 to 287
12 | Nc1cc(=O)n(C2CCCCC2)c2nc(NC3CCCCC3)ncc12 [Compound I-32, 5-Amino-8-cyclohexyl-2-cyclohexylamino-8H-pyrido[2,3-d]pyrimidin-7-one] | 243.1 to 244.9
13 | CC(=O)N1CCC(Nc2ncc3c(N)cc(=O)n([C@@H]4CC[C@@H](O)C4)c3n2)CC1 (racemic) [Compound I-37, 2-(1-Acetyl-piperidin-4-ylamino)-5-amino-8-((1R,3R)-3-hydroxy-cyclopentyl)-8H-pyrido[2,3-d]pyrimidin-7-one] | 192 to 194
14 | Nc1cc(=O)n(C2CCCC2)c2nc(NC3CCOCC3)ncc12 [Compound I-33, 5-Amino-8-cyclopentyl-2-(tetrahydro-pyran-4-ylamino)-8H-pyrido[2,3-d]pyrimidin-7-one] | 120 to 124
15 | COC(=O)N[C@H]1CC[C@H](Nc2ncc3c(N)cc(=O)n(C4CCC4)c3n2)CC1 [Compound I-2, [4-(5-Amino-8-cyclobutyl-7-oxo-7,8-dihydro-pyrido[2,3-d]pyrimidin-2-ylamino)-cyclohexyl]-carbamic acid methyl ester] | 154.3 to 156
